From patent US20240279220A1, “INDOLE COMPOUNDS AND METHODS OF USE” (Genzyme Corporation, priority 2021, published 2024) come the findings set out here.

The test concerns NBD1/3D. Briefly: Aggregation analysis using differential static light scattering (DSLS), NBD1 thermal stability. Type of test: binding, Human. Conditions: ΔTagg versus DMSO control; compound at 100 μM. The method in brief: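 Thermal stabilisation reported as ΔTagg, i.e. aggregation temperature relative to averaged DMSO wells. Tagg came from the inflection of differential static light scattering imaged 25–70 °C while NBD1 (0.2 mg/ml, Tris pH 7.6 buffer containing ATP, MgCl2, DTT, glycerol) was ramped 1 °C/min.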

The structures appear in SMILES notation.

Regarding `CC(O)(c1cccc(CCC(=O)O)c1)c1cnc(-c2cc(Oc3c(F)cc4[nH]ccc4c3S(C)(=O)=O)ccc2F)[nH]1` (stereo not drawn) [Example 26, 3-(3-(1-(2-(2-Fluoro-5-((6-fluoro-4-(methylsulfonyl)-1H-indol-5-yl)oxy)phenyl)-1H-imidazol-5-yl)-1-hydroxyethyl)phenyl)propanoic acid], the “DSLS NBD1/3D Human Stability delta-T (° C.) @ 100 (μM)” value (“DSLS NBD1/3D Human Stability delta-T” for short) is listed as “A (A: T ≥ 10° C.)”.
Regarding `CC(O)(c1cccc(CCC(N)=O)c1)c1cnc(-c2cc(Oc3c(F)cc4[nH]ccc4c3S(C)(=O)=O)ccc2F)[nH]1` (stereo not drawn) [Example 30, 3-(3-(1-(2-(2-Fluoro-5-((6-fluoro-4-(methylsulfonyl)-1H-indol-5-yl)oxy)phenyl)-1H-imidazol-5-yl)-1-hydroxyethyl)phenyl)propanamide], the “DSLS NBD1/3D Human Stability delta-T” value is listed as “B (B: 5-10° C.)”.
For the compound `CC(c1cnc(-c2cc(Oc3c(F)cc4[nH]ccc4c3F)ccc2F)[nH]1)c1cc(F)cc(CCC(=O)O)c1F` (single isomer, unassigned) [Example 132A, 3-(3-(1-(2-(5-((4,6-difluoro-1H-indol-5-yl)oxy)-2-fluorophenyl)-1H-imidazol-5-yl)ethyl)-2,5-difluorophenyl)propanoic acid], the “DSLS NBD1/3D Human Stability delta-T” value is “C (C: ≤5° C.)”.
The result for `Cc1c(Oc2cccc(-c3ncc(C(O)c4cccc(CC(F)C(=O)O)c4)[nH]3)c2)ccc2[nH]ccc12` (stereo not drawn) [Example 172, 2-Fluoro-3-(3-(hydroxy(2-(3-((4-methyl-1H-indol-5-yl)oxy)phenyl)-1H-imidazol-5-yl)methyl)phenyl)propanoic acid] reads “A (A: T ≥ 10° C.)”; that for `O=C(O)CCc1cccc(C2(c3cnc(-c4cc(Oc5c(F)cc6[nH]ccc6c5F)ccc4F)[nH]3)OCCO2)c1` [Example 229, 3-(3-(2-(2-(5-((4,6-difluoro-1H-indol-5-yl)oxy)-2-fluorophenyl)-1H-imidazol-5-yl)-1,3-dioxolan-2-yl)phenyl)propanoic acid], “A (A: T ≥ 10° C.)”.
The value for `CC(C)S(=O)(=O)c1c(Oc2ccc(F)c(-c3nc(C(C)(O)c4cccc(CCC(=O)O)c4)c[nH]3)c2)c(F)cc2[nH]ccc12` (stereo not drawn) [Example 29, 3-(3-(1-(2-(2-fluoro-5-((6-fluoro-4-(isopropylsulfonyl)-1H-indol-5-yl)oxy)phenyl)-1H-imidazol-4-yl)-1-hydroxyethyl)phenyl)propanoic acid] was “B (B: 5-10° C.)”; that for `COCCOC(C)(c1cccc(CCC(=O)O)c1)c1cnc(-c2cc(Oc3c(F)c(F)c4[nH]ccc4c3C)ccc2F)[nH]1` (stereo not drawn) [Example 234, 3-(3-(1-(2-(5-((6,7-difluoro-4-methyl-1H-indol-5-yl)oxy)-2-fluorophenyl)-1H-imidazol-5-yl)-1-(2-methoxyethoxy)ethyl)phenyl) propanoic acid] was “B (B: 5-10° C.)”; that for `CC(C#N)(c1cccc(CCC(=O)O)c1)c1cnc(-c2cc(Oc3c(F)c(F)c4[nH]ccc4c3F)ccc2F)[nH]1` (stereo not drawn) [Example 54, 3-(3-(1-cyano-1-(2-(2-fluoro-5-((4,6,7-trifluoro-1H-indol-5-yl)oxy)phenyl)-1H-imidazol-5-yl)ethyl)phenyl)propanoic acid] was “B (B: 5-10° C.)”.
The result for `Cc1c(Oc2ccc(F)c(-c3ncc(C4(c5cccc(CCC(=O)O)c5)CCN(CC(F)(F)F)CC4)[nH]3)c2)c(F)cc2[nH]ccc12` [Example 168, 3-(3-(4-(2-(2-fluoro-5-((6-fluoro-4-methyl-1H-indol-5-yl)oxy)phenyl)-1H-imidazol-5-yl)-1-(2,2,2-trifluoroethyl)piperidin-4-yl)phenyl)propanoic acid] reads “B (B: 5-10° C.)”.
Consider `CC(c1c[nH]c(-c2cc(Oc3c(F)cc4[nH]ccc4c3S(C)(=O)=O)ccc2F)n1)c1cccc(CC(=O)O)c1F` (single isomer, unassigned) [Example 85, 2-(2-fluoro-3-(1-(2-(2-fluoro-5-((6-fluoro-4-(methylsulfonyl)-1H-indol-5-yl)oxy)phenyl)-1H-imidazol-4-yl)ethyl)phenyl)acetic acid], for which the “DSLS NBD1/3D Human Stability delta-T” value is recorded as “B (B: 5-10° C.)”.
The value for `O=C(O)CCc1cccc(C2(c3cnc(-c4cc(Oc5nc6cc[nH]c6cc5F)ccc4F)[nH]3)CC(F)(F)C2)c1` [Example 165, 3-(3-(3,3-difluoro-1-(2-(2-fluoro-5-((6-fluoro-1H-pyrrolo[3,2-b]pyridin-5-yl)oxy)phenyl)-1H-imidazol-5-yl)cyclobutyl)phenyl)propanoic acid] was “B (B: 5-10° C.)”; that for `O=C(O)CCc1cccc(C(O)c2cnc(-c3cccc(Oc4c(F)cc5[nH]ccc5c4-c4ccn[nH]4)c3)[nH]2)c1` (stereo not drawn) [Example 267, 3-(3-((2-(3-((6-Fluoro-4-(1H-pyrazol-5-yl)-1H-indol-5-yl)oxy)phenyl)-1H-imidazol-5-yl)(hydroxy)methyl)phenyl)propanoic acid] was “B (B: 5-10° C.)”.
The result for `CC(C#N)(c1cccc(CCC(=O)O)c1)c1cnc(-c2cc(Oc3nc4cc[nH]c4cc3F)ccc2F)[nH]1` (stereo not drawn) [Example 61, 3-(3-(1-cyano-1-(2-(2-fluoro-5-((6-fluoro-1H-pyrrolo[3,2-b]pyridin-5-yl)oxy)phenyl)-1H-imidazol-5-yl)ethyl)phenyl)propanoic acid] reads “B (B: 5-10° C.)”; that for `CS(=O)(=O)c1c(Oc2cccc(-c3nc(Cc4cccc(CCC(=O)O)c4)cs3)c2)c(F)cc2[nH]ccc12` [Example 35, 3-(3-((2-(3-((6-Fluoro-4-(methylsulfonyl)-1H-indol-5-yl)oxy)phenyl)thiazol-4-yl)methyl)phenyl)propanoic acid], “B (B: 5-10° C.)”.
Regarding `O=C(O)CCc1cccc(Cc2cnc(-c3cc(Oc4ccc5[nH]ccc5c4C(F)(F)F)ccc3F)[nH]2)c1` [Example 104, 3-(3-((2-(2-fluoro-5-((4-(trifluoromethyl)-1H-indol-5-yl)oxy)phenyl)-1H-imidazol-5-yl)methyl)phenyl)propanoic acid], the “DSLS NBD1/3D Human Stability delta-T” value is listed as “B (B: 5-10° C.)”.
The result for `Cc1c(Oc2ccc(F)c(-c3ncc([C@]4(c5cccc(CCC(=O)O)c5)C[C@@H](O)CO4)[nH]3)c2)c(F)cc2[nH]ccc12` (racemic) [Example 275, rac-3-(3-((2r,4r)-2-(2-(2-Fluoro-5-((6-fluoro-4-methyl-1H-indol-5-yl)oxy)phenyl)-1H-imidazol-5-yl)-4-hydroxytetrahydrofuran-2-yl)phenyl)propanoic acid] reads “B (B: 5-10° C.)”.
The value for `CC(O)(c1cccc(CCC(=O)O)c1)c1c[nH]c(-c2cc(Oc3cc4cc[nH]c4c(F)c3F)ccc2F)n1` (stereo not drawn) [Example 198, 3-(3-(1-(2-(5-((6,7-difluoro-1H-indol-5-yl)oxy)-2-fluorophenyl)-1H-imidazol-4-yl)-1-hydroxyethyl)phenyl) propanoic acid] was “A (A: T ≥ 10° C.)”; that for `Cc1c(Oc2ccc(F)c(-c3nc(Cc4cccc(CCC(=O)O)c4)c[nH]3)c2)ccc2[nH]ccc12` [Example 109, 3-(3-((2-(2-fluoro-5-((4-methyl-1H-indol-5-yl)oxy)phenyl)-1H-imidazol-4-yl)methyl)phenyl)propanoic acid] was “B (B: 5-10° C.)”; that for `Cc1c(Oc2ccc(F)c(-c3ncc(C(C)c4cccc([C@H]5C[C@@H]5C(=O)O)c4F)[nH]3)c2)c(F)cc2[nH]ccc12` (single isomer, unassigned) [Example 139G, trans-2-(2-fluoro-3-(1-(2-(2-fluoro-5-((6-fluoro-4-methyl-1H-indol-5-yl)oxy)phenyl)-1H-imidazol-5-yl)ethyl)phenyl)cyclopropane-1-carboxylic acid] was “C (C: ≤5° C.)”.
The value for `CC(c1c[nH]c(-c2cc(Oc3c(F)cc4[nH]ccc4c3CC(F)F)ccc2F)n1)c1cccc(CCC(=O)O)c1F` (single isomer, unassigned) [Example 129B, 3-(3-(1-(2-(5-((4-(2,2-difluoroethyl)-6-fluoro-1H-indol-5-yl)oxy)-2-fluorophenyl)-1H-imidazol-4-yl)ethyl)-2-fluorophenyl)propanoic acid] was “C (C: ≤5° C.)”.
As for `C=Cc1c(Oc2cccc(-c3ncc(C(O)c4cccc(CCC(=O)O)c4)[nH]3)c2)ccc2[nH]ccc12` (stereo not drawn) [Example 174, 3-(3-(hydroxy(2-(3-((4-vinyl-1H-indol-5-yl)oxy)phenyl)-1H-imidazol-5-yl)methyl)phenyl)propanoic acid], the “DSLS NBD1/3D Human Stability delta-T” value was “B (B: 5-10° C.)”.
The value for `O=C(O)CCc1cccc(C2(c3cnc(-c4cc(Oc5c(F)cc6[nH]ccc6c5F)ccc4F)[nH]3)OCCCO2)c1` [Example 228, 3-(3-(2-(2-(5-((4,6-difluoro-1H-indol-5-yl)oxy)-2-fluorophenyl)-1H-imidazol-5-yl)-1,3-dioxan-2-yl)phenyl)propanoic acid] was “A (A: T ≥ 10° C.)”; that for `Cc1c(Oc2cccc(-c3ncc(C(C)(O)c4cccc(CCC(=O)O)c4)[nH]3)c2)c(F)cc2[nH]ccc12` (stereo not drawn) [Example 185, 3-(3-(1-(2-(3-((6-fluoro-4-methyl-1H-indol-5-yl)oxy)phenyl)-1H-imidazol-5-yl)-1-hydroxyethyl)phenyl) propanoic acid] was “A (A: T ≥ 10° C.)”; that for `CC(c1cccc(CCC(=O)O)c1F)n1ccc(-c2cc(Oc3c(F)cc4[nH]ccc4c3S(C)(=O)=O)ccc2F)n1` (single isomer, unassigned) [Example 41A, 3-(2-fluoro-3-(1-(3-(2-fluoro-5-((6-fluoro-4-(methylsulfonyl)-1H-indol-5-yl)oxy)phenyl)-1H-pyrazol-1-yl)ethyl)phenyl)propanoic acid] was “C (C: ≤5° C.)”.
